Measurements from publication PMC5584945, “Evaluation of robenidine analog NCL195 as a novel broad-spectrum antibacterial agent” (PLoS ONE, 2017).

Test system: A. baumannii, E. coli, K. pneumoniae and P. aeruginosa
Test: MIC with sub-inhibitory EDTA or polymyxin B, Gram-negative panel
Type: cell-based
Method: MICs for NCL812 and its analogs (serial two-fold dilutions commencing at 128 μg/ml) were determined (in duplicate) in round bottom 96-well microtitre trays (Sarstedt 82.1582.001), using the broth micro-dilution method recommended by the Clinical and Laboratory Standards Institute (CLSI). […] MIC50, MIC90 and MIC range for NCL812, NCL195 and NCL219 were calculated against each S. pneumoniae, S. aureus or VRE isolate. To assess the potential activity of NCL195 against Gram-negative bacteria, MICs against Acinetobacter spp, E. coli, K. pneumoniae, P. aeruginosa, Proteus spp and Neisseria meningitidis were performed in the presence or absence of 0.08 mM-20 mM EDTA in a standard checkerboard assay.

**Q.** What does the source list for `Cc1ccc(/C=N/Nc2cc(N/N=C/c3ccc(C)cc3)nc(N)n2)cc1` [NCL195, 4,6-bis(2-((E)-4-methylbenzylidene)hydrazinyl)pyrimidin-2-amine]?
**A.** MIC (in the presence of sub-inhibitory concentrations of EDTA): 0.25 to 8 µg/mL; MIC (in the presence of sub-inhibitory concentrations of polymyxin B): 0.25 to 1 µg/mL
